Test results from ChEMBL document CHEMBL2046317, “A-ring dihalogenation increases the cellular activity of combretastatin-templated tetrazoles” (ACS Med Chem Lett, 2012).

Columns and labels:
HUVEC = assay: Antivascular activity against HUVEC after 24 hrs by xCELLigence assays; format: functional, cell-based; details: Homo sapiens
Bos taurus = species: Bos taurus; assay: Inhibition of purified bovine tubulin polymerization at 5 uM measured 30 secs intervals for 60 mins by spectrophotometer analysis relative to control
A549 = assay: Growth inhibition of human A549 cells after 48 hrs by SRB assay; format: functional, cell-based; details: A549, 48 h
MRC5 = assay: Growth inhibition of human MRC5 cells after 48 hrs by SRB assay; format: cell-based; details: MRC5, 48 h
HT-29 = assay: Growth inhibition of combretastatin-resistant human HT-29 cells after 48 hrs by SRB assay; format: functional, cell-based; details: HT-29, 48 h
SK-OV-3 [1] = assay: Growth inhibition of paclitaxel-resistant human SKOV3 cells after 48 hrs by SRB assay; format: functional, cell-based; details: SK-OV-3, 48 h
PC-3 = assay: Growth inhibition of human PC3 cells after 48 hrs by SRB assay; format: functional, cell-based; details: PC-3, 48 h
SK-OV-3 [2] = assay: Cell cycle arrest in human SKOV3 cells assessed as accumulation at G2/M phase at 5 nM by FACS analysis; format: functional
DLD-1 = assay: Growth inhibition of human DLD1 cells after 48 hrs by SRB assay; format: functional, cell-based; details: DLD-1, 48 h
MCF7 = assay: Growth inhibition of human MCF7 cells after 48 hrs by SRB assay; format: functional, cell-based; details: MCF7, 48 h
SK-OV-3 [3] = assay: Growth inhibition of human SKOV3 cells after 48 hrs by SRB assay; format: functional, cell-based; details: SK-OV-3, 48 h
SK-OV-3 [4] = assay: Cell cycle arrest in human SKOV3 cells assessed as accumulation at sub-G1 phase at 5 nM by FACS analysis; format: functional
[5] = Inhibition of tubulin polymerization

| fold change (FC) (Bos taurus) | IC50 (A549) | IC50 (HT-29) | IC50 (SK-OV-3 [1]) | IC50 (PC-3) | IC50 (DLD-1) | IC50 (MCF7) | IC50 (SK-OV-3 [3]) | SMILES | IC50 (HUVEC) | IC50 (MRC5) | Activity (SK-OV-3 [2]) | Activity (SK-OV-3 [4]) | IC50 [5] |
| --- | --- | --- | --- | --- | --- | --- | --- | --- | --- | --- | --- | --- | --- |
| 1.5 | 21 nM | > 500 nM | 5.6 nM | 2.9 nM | 8.2 nM | 7 nM | 6.1 nM | COc1ccc(-c2nnnn2-c2cc(Br)c(OC)c(Br)c2)cc1O | 6.6 nM | 5.7 nM | 40% |  |  |
| 1.7 | 2.8 nM | 513 nM | 1.4 nM | 0.5 nM | 2.4 nM | 1.9 nM | 2.6 nM | COc1ccc(-c2nnnn2-c2cc(I)c(OC)c(I)c2)cc1O | 2.4 nM | 2.2 nM | 89% |  |  |
|  |  |  |  |  |  |  | 5 nM | COc1ccc(/C=C\c2cc(Br)c(OC)c(Br)c2)cc1O | 3 nM |  | 52% |  |  |
|  |  |  |  |  |  |  |  | COc1ccc(-c2nnnn2-c2cc(OC)c(OC)c(OC)c2)cc1N |  |  |  |  | 2000 nM |
| 2.9 | 22 nM | > 500 nM | 11 nM | 9 nM | 24 nM | 21 nM | 9.5 nM | COc1ccc(-c2nnnn2-c2cc(OC)c(OC)c(OC)c2)cc1O | 13.6 nM | 12 nM | 25% |  |  |

| SMILES | fold change (FC) (Bos taurus) | IC50 (A549) | IC50 (HT-29) | IC50 (SK-OV-3 [1]) | IC50 (PC-3) | IC50 (DLD-1) | IC50 (MCF7) | IC50 (SK-OV-3 [3]) | IC50 (HUVEC) | IC50 (MRC5) | Activity (SK-OV-3 [2]) | Activity (SK-OV-3 [4]) | IC50 [5] |
| --- | --- | --- | --- | --- | --- | --- | --- | --- | --- | --- | --- | --- | --- |
| COc1ccc(/C=C\c2cc(OC)c(OC)c(OC)c2)cc1O [COMBRETASTATIN A4] | 3 | 7.9 nM | 538 nM | 4.2 nM | 2.9 nM | 3.3 nM | 3 nM |  |  | 2.8 nM | 31% | <5% |  |
| COc1ccc(/C=C\c2cc(I)c(OC)c(I)c2)cc1O |  |  |  |  |  |  |  | 5 nM | 1.9 nM |  | 84% |  |  |
